Test results reported in US20110207751A1, “HETEROCYCLIC COMPOUNDS AND USES AS ANTICANCER AGENTS” (priority 2010, published 2011).
Counter-ions that a name gives are not always drawn. Like-named read-outs stand apart in the source and are kept apart here.

Legend:
[1] = test system: HT1080 cells (human connective tissue cancer cell line); experiment: Inhibition of cell proliferation, xCelligence cell index; type: cell-based; conditions: HT-1080, 72 hr post compound treatment, read-out: calculated IC50
Excerpt: (§1) The biological activity of compounds disclosed herein was monitored and profiled using the Real-Time Cell Electronic Sensing (RT-CES®) system from ACEA Biosciences, Inc. The RT-CES system utilizes cell-substrate impedance technology to monitor cellular behavior inside tissue culture wells in a microtiter plate format. The technology features in the integration of molecular and cell biology with microelectronics and is based on the electronic detection of biological assay process. […]
(§2) For measurement of cell-substrate or cell-electrode impedance using RT-CES technology, microelectrodes having appropriate geometries are fabricated onto the bottom surfaces of microtiter plate or similar device, facing into the wells. […] When there are changes to the biological status of the cells analogue electronic readout signals are measured automatically and in real time, and are converted to digital signals for processing and for analysis. In a RT-CES system, a cell index (arbitrary representation of change in impedance) is automatically derived and provided based on measured electrode impedance values. […]
(§3) To quantify cell status based on the measured cell-electrode impedance, a parameter termed Cell Index is derived. Cell Index is a quantitative measure of the status of the cells in an electrode-containing well. […]

[2] = test system: H1838 cells (human non-small cell lung cancer cell line); experiment: as above; type: cell-based; conditions: NCI-H1838, 72 hr post compound treatment, read-out: calculated IC50
Excerpt: as §1, §2, §3

[3] = test system: A549 human non-small cell lung cancer xenograft; experiment: In vivo antitumor efficacy, A549 xenograft; set-up: species or system BALB/c immunodeficient nude mice
Excerpt: To evaluate the in vivo anticancer efficacy of COMPOUND O, A549 human non-small cell lung cancer xenograft models in immunodeficient nude mice was used. The cell line and mice were maintained in the Pharmacology Lab of ACEA Bio (Hangzhou) CO., Ltd. The BALB/c immunodeficient nude mice were purchased from Shanghai SLAC Laboratory Animal, certification number: SCXKA (Shanghai) 2007-0005. The mouse weight was between 21±1 g. Only female mice were used in this study. The numbers of animals tested were as follow: 7-8 for each dose group, 6 for positive control group and 7 for negative control group.
Test Control. For negative control, each mouse was administered orally with the solvent only having the same volume and same concentration as those used in COMPOUND O test, 120 mg/kg once every other day (qod) for 25 days. For positive control, an oral anticancer compound, Etoposide was administered orally at 30 mg/kg qod for 25 days.
Preparation an Administration of Test Compounds. COMPOUND O was dissolved in 25% phospholipid (S75) and 75% polyvinylpyrrolidone (PL-PVP) then further diluted to 8 mg/ml in 0.9% NaCl aqueous solution. Each mouse was administered orally with the compound solution. Different dosages of COMPOUND O (120 mg/kg qod and 160 mg/kg q2*2 (dosing for 2 consecutive days then off for 2 consecutive days) were used in the study.
Preparation of tumor cells for transplantation and determination of compound efficacy. To prepare the cancer cells for A549 human non-small cell lung cancer xenograft model, the log phase growing cell in the flask were trypsinized and cells were re-suspended in PBS (pH 7.2) at 2.5×10^7 cells/ml. The cell suspension (5×10^6 cells) was subcutaneously injected into the auxiliary region (right-side) of each mouse. After the inoculated cancer cells grew to a tumor of certain size (50-60 mm^3) in the nude mice (about 15 days post inoculation), the mice were randomized into different dosing groups and subjected to compound treatment. Between 3-4 weeks after the first dosing, mice were sacrificed and the transplanted tumors were removed from experimental mice. Each removed solid tumor was weighed; the tumor inhibition rate in each dosage group was calculated according to equation (1) in Example 1.
All used materials including animal food, animal cage, supporting materials and apparatus contacted by animals, were high-pressure sterilized. Nude mice were maintained in laminar flow shelves under SPF condition. After tumor transplantation, mouse weight and tumor size in each compound dosage group were dynamically monitored and plotted. The tumor size was determined by measuring the major axis (a) and minor axis (b) of the tumor, and tumor volume was calculated according to the formula (2) in Example 1.

[4] = test system: KB200 cells over-expressing multiple drug resistant (MDR) gene; experiment: Inhibition of cell proliferation, xCelligence cell index; type: cell-based; conditions: Homo sapiens
Excerpt: For measurement of cell-substrate or cell-electrode impedance using RT-CES technology, microelectrodes having appropriate geometries are fabricated onto the bottom surfaces of microtiter plate or similar device, facing into the wells. Cells are introduced into the wells of the devices, and make contact to and attach to the electrode surfaces. The presence, absence or change of properties of cells affects the electronic and ionic passage on the electrode sensor surfaces. Measuring the impedance between or among electrodes provides important information about biological status of cells present on the sensors. When there are changes to the biological status of the cells analogue electronic readout signals are measured automatically and in real time, and are converted to digital signals for processing and for analysis. In a RT-CES system, a cell index (arbitrary representation of change in impedance) is automatically derived and provided based on measured electrode impedance values. The cell index obtained for a given well reflects: 1) how many cells are attached to the electrode surfaces in this well; 2) how well cells are attached to the electrode surfaces in this well. Thus, the more the cells of same type in similar physiological conditions attach the electrode surfaces, the larger the cell index. And, the better the cells attach to the electrode surfaces (e.g., the cells spread-out more to have larger contact areas, or the cells attach tighter to electrode surfaces), the larger the cell index.
To quantify cell status based on the measured cell-electrode impedance, a parameter termed Cell Index is derived. Cell Index is a quantitative measure of the status of the cells in an electrode-containing well. Under the same physiological conditions, more cells attached on to the electrodes leads to larger cell-electrode resistance value, leading to a larger value for Cell Index. Furthermore, for the same number of cells present in the well, a change in the cell status such as morphology will lead to a change in the Cell Index. […]
The efficacy of these compounds was also tested against KB200 cell over-expressing multiple drug resistant (MDR) gene. […] The cell status was monitored prior to and after the compound addition using xCelligence system (Roche). […]

[5] = test system: KB cells (parental cervical cancer cell line); experiment: as above; type: cell-based; conditions: Homo sapiens, 72 hr post compound treatment, read-out: calculated IC50
Excerpt: For measurement of cell-substrate or cell-electrode impedance using RT-CES technology, microelectrodes having appropriate geometries are fabricated onto the bottom surfaces of microtiter plate or similar device, facing into the wells. Cells are introduced into the wells of the devices, and make contact to and attach to the electrode surfaces. The presence, absence or change of properties of cells affects the electronic and ionic passage on the electrode sensor surfaces. Measuring the impedance between or among electrodes provides important information about biological status of cells present on the sensors. When there are changes to the biological status of the cells analogue electronic readout signals are measured automatically and in real time, and are converted to digital signals for processing and for analysis. In a RT-CES system, a cell index (arbitrary representation of change in impedance) is automatically derived and provided based on measured electrode impedance values. The cell index obtained for a given well reflects: 1) how many cells are attached to the electrode surfaces in this well; 2) how well cells are attached to the electrode surfaces in this well. […]
The parental cervical cancer cell line, KB cells were first tested. […] The cell status was monitored prior to and after the compound addition using xCelligence system (Roche). […]

[6] = 72 hr post compound treatment, read-out: calculated IC50

SMILES: CC[C@]1(O)C[C@H]2CN(CCc3c([nH]c4ccccc34)[C@@](C(=O)OC)(c3cc4c(cc3OC)N(C=O)[C@H]3[C@@](O)(C(=O)OC)[C@H](OC(C)=O)[C@]5(CC)C=CCN6CC[C@]43[C@@H]65)C2)C1 [vincristine]
- IC50 [1]: 2.01 nM
- IC50 [2]: 3.16 nM

SMILES: COc1cc([C@@H]2c3cc4c(cc3[C@@H](O[C@@H]3O[C@@H]5CO[C@@H](C)O[C@H]5[C@H](O)[C@H]3O)[C@H]3COC(=O)[C@H]23)OCO4)cc(OC)c1O [Etoposide, reference compound]
- TV inhibition rate % T/C ([3]; 30 mg/kg ig × 13 qod): 40.0%
- Tumor volume (mm^3) End ([3]; 30 mg/kg ig × 13 qod): 243 ± 121 mm^3
- Tumor volume (mm^3) Start ([3]; 30 mg/kg ig × 13 qod): 57.42 ± 23.5 mm^3
- Tumor weight (g) x ± SD ([3]; 30 mg/kg ig × 13 qod): 0.27 ± 0.15 g
- Tumor inhibition rate % ([3]; 30 mg/kg ig × 13 qod, by tumor weight): 59.9%

SMILES: CC(=O)O[C@H]1C(=O)[C@@]2(C)[C@H]([C@H](OC(=O)c3ccccc3)[C@]3(O)C[C@H](OC(=O)[C@H](O)[C@@H](NC(=O)c4ccccc4)c4ccccc4)C(C)=C1C3(C)C)[C@]1(OC(C)=O)CO[C@@H]1C[C@@H]2O [paclitaxel]
- IC50 [4, 6]: > 1000 nM
- IC50 ([4]; read-out: IC50): > 1000 nM
- IC50 [5]: 7.19 nM

SMILES: CCc1ccc(Nc2nc(-c3c(C)nc4sccn34)cs2)cc1 [COMPOUND O, 2-(4-ethylphenyl)amino-4-(6-methylimidazo[2,1-b]thiazol-5-yl)-thiazole monohydrobromide]
- IC50 [1]: 7.63 nM
- TV inhibition rate % T/C ([3]; 120 mg/kg ig × 14 qod): 37.5%
- Tumor volume (mm^3) End ([3]; 120 mg/kg ig × 14 qod): 244 ± 105 mm^3
- Tumor volume (mm^3) Start ([3]; 120 mg/kg ig × 14 qod): 53.31 ± 24.5 mm^3
- Tumor weight (g) x ± SD ([3]; 120 mg/kg ig × 14 qod): 0.25 ± 0.08 g
- Tumor inhibition rate % ([3]; 120 mg/kg ig × 14 qod, by tumor weight): 67.8%
- TV inhibition rate % T/C ([3]; 160 mg/kg ig × 11 q2*2): 47.9%
- Tumor volume (mm^3) End ([3]; 160 mg/kg ig × 11 q2*2): 265 ± 135 mm^3
- Tumor volume (mm^3) Start ([3]; 160 mg/kg ig × 11 q2*2): 45.25 ± 15.9 mm^3
- Tumor weight (g) x ± SD ([3]; 160 mg/kg ig × 11 q2*2): 0.29 ± 0.11 g
- Tumor inhibition rate % ([3]; 160 mg/kg ig × 11 q2*2, by tumor weight): 62.5%
- IC50 [4, 6]: 9.84 nM
- IC50 [2]: 11.8 nM
- IC50 [5]: 33.1 nM
